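Results reflect a 48-hour exposure of cells in 96-well plates to compound at five concentrations. GI50 is the concentration that inhibits growth by half. TGI: concentration producing complete growth inhibition.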
Legend:
Test in all cases: NCI anticancer screen, dose series, 48 h
786-0 renal = system: 786-0 renal
A498 renal = system: A498 renal
A549 NSCLC = system: A549 NSCLC
ACHN renal = system: ACHN renal
BT-549 breast = system: BT-549 breast
CAKI-1 renal = system: CAKI-1 renal
CCRF-CEM leukemia = system: CCRF-CEM leukemia
COLO 205 colon = system: COLO 205 colon
DU-145 prostate = system: DU-145 prostate
EKVX NSCLC = system: EKVX NSCLC
HCC-2998 colon = system: HCC-2998 colon
HCT-116 colon = system: HCT-116 colon
HCT-15 colon = system: HCT-15 colon
HL-60(TB) leukemia = system: HL-60(TB) leukemia
HOP-62 NSCLC = system: HOP-62 NSCLC
HOP-92 NSCLC = system: HOP-92 NSCLC
HS 578T breast = system: HS 578T breast
HT29 colon = system: HT29 colon
IGROV1 ovarian = system: IGROV1 ovarian
K-562 leukemia = system: K-562 leukemia
KM12 colon = system: KM12 colon
LOX IMVI melanoma = system: LOX IMVI melanoma
M14 melanoma = system: M14 melanoma
MALME-3M melanoma = system: MALME-3M melanoma
MCF7 breast = system: MCF7 breast
MDA-MB-231 breast = system: MDA-MB-231 breast
MDA-MB-435 = system: MDA-MB-435
MDA-MB-468 breast = system: MDA-MB-468 breast
MOLT-4 leukemia = system: MOLT-4 leukemia
NCI-H226 lung = system: NCI-H226 lung
NCI-H23 lung = system: NCI-H23 lung
NCI-H460 lung = system: NCI-H460 lung
NCI-H522 lung = system: NCI-H522 lung
NCI/ADR-RES ovarian = system: NCI/ADR-RES ovarian
OVCAR-3 ovarian = system: OVCAR-3 ovarian
OVCAR-4 ovarian = system: OVCAR-4 ovarian
OVCAR-5 ovarian = system: OVCAR-5 ovarian
OVCAR-8 ovarian = system: OVCAR-8 ovarian
PC-3 prostate = system: PC-3 prostate
RPMI-8226 leukemia = system: RPMI-8226 leukemia
RXF 393 renal = system: RXF 393 renal
SF-268 CNS = system: SF-268 CNS
SF-295 CNS = system: SF-295 CNS
SF-539 CNS = system: SF-539 CNS
SK-MEL-2 melanoma = system: SK-MEL-2 melanoma
SK-MEL-28 melanoma = system: SK-MEL-28 melanoma
SK-MEL-5 melanoma = system: SK-MEL-5 melanoma
SK-OV-3 ovarian = system: SK-OV-3 ovarian
SN12C renal = system: SN12C renal
SNB-19 CNS = system: SNB-19 CNS
SNB-75 CNS = system: SNB-75 CNS
SW-620 colon = system: SW-620 colon
T-47D breast = system: T-47D breast
TK-10 renal = system: TK-10 renal
U251 CNS = system: U251 CNS
UACC-257 melanoma = system: UACC-257 melanoma
UACC-62 melanoma = system: UACC-62 melanoma
UO-31 renal = system: UO-31 renal

Structure (SMILES): Brc1ccc(N/N=C/c2c[nH]c3ccc(Br)cc23)nc1
- GI50 (786-0 renal): 2.5 µM
- TGI (786-0 renal): 8.24 µM
- GI50 (A498 renal): 4.03 µM
- TGI (A498 renal): 13.3 µM
- GI50 (A549 NSCLC): 3.26 µM
- TGI (A549 NSCLC): 12.7 µM
- GI50 (ACHN renal): 2.66 µM
- TGI (ACHN renal): 10.5 µM
- GI50 (BT-549 breast): 0.259 µM
- TGI (BT-549 breast): 5.39 µM
- GI50 (CAKI-1 renal): 1.6 µM
- TGI (CAKI-1 renal): 9.87 µM
- GI50 (CCRF-CEM leukemia): 1.27 µM
- TGI (CCRF-CEM leukemia): > 100 µM
- GI50 (COLO 205 colon): 2.07 µM
- TGI (COLO 205 colon): 5 µM
- GI50 (DU-145 prostate): 4.55 µM
- TGI (DU-145 prostate): 16 µM
- GI50 (EKVX NSCLC): 1.74 µM
- TGI (EKVX NSCLC): 10.9 µM
- GI50 (HCC-2998 colon): 1.74 µM
- TGI (HCC-2998 colon): 3.55 µM
- GI50 (HCT-116 colon): 2.68 µM
- TGI (HCT-116 colon): 10.6 µM
- GI50 (HCT-15 colon): 1.8 µM
- TGI (HCT-15 colon): 4.25 µM
- GI50 (HL-60(TB) leukemia): 1.7 µM
- TGI (HL-60(TB) leukemia): 18.7 µM
- GI50 (HOP-62 NSCLC): 3.14 µM
- TGI (HOP-62 NSCLC): 13 µM
- GI50 (HOP-92 NSCLC): 1.51 µM
- TGI (HOP-92 NSCLC): 4.27 µM
- GI50 (HS 578T breast): 2.13 µM
- TGI (HS 578T breast): 8.29 µM
- GI50 (HT29 colon): 2.39 µM
- TGI (HT29 colon): 5.32 µM
- GI50 (IGROV1 ovarian): 0.251 µM
- TGI (IGROV1 ovarian): 1.89 µM
- GI50 (K-562 leukemia): 2.73 µM
- TGI (K-562 leukemia): > 100 µM
- GI50 (KM12 colon): 1.67 µM
- TGI (KM12 colon): 5.88 µM
- GI50 (LOX IMVI melanoma): 1.11 µM
- TGI (LOX IMVI melanoma): 2.49 µM
- GI50 (M14 melanoma): 2.03 µM
- TGI (M14 melanoma): 5.31 µM
- GI50 (MALME-3M melanoma): 3.26 µM
- TGI (MALME-3M melanoma): 15.3 µM
- GI50 (MCF7 breast): 1.59 µM
- TGI (MCF7 breast): 7.85 µM
- GI50 (MDA-MB-231 breast): 1.44 µM
- TGI (MDA-MB-231 breast): 3.64 µM
- GI50 (MDA-MB-435): 3.45 µM
- TGI (MDA-MB-435): 14.1 µM
- GI50 (MDA-MB-468 breast): 1.61 µM
- TGI (MDA-MB-468 breast): 4.2 µM
- GI50 (MOLT-4 leukemia): 0.644 µM
- TGI (MOLT-4 leukemia): 18.5 µM
- GI50 (NCI-H226 lung): 0.674 µM
- TGI (NCI-H226 lung): 10.3 µM
- GI50 (NCI-H23 lung): 2.14 µM
- TGI (NCI-H23 lung): 8.21 µM
- GI50 (NCI-H460 lung): 2.7 µM
- TGI (NCI-H460 lung): 8.64 µM
- GI50 (NCI-H522 lung): 1.6 µM
- TGI (NCI-H522 lung): 5.54 µM
- GI50 (NCI/ADR-RES ovarian): 2.79 µM
- TGI (NCI/ADR-RES ovarian): 12.4 µM
- GI50 (OVCAR-3 ovarian): 2.69 µM
- TGI (OVCAR-3 ovarian): 9.13 µM
- GI50 (OVCAR-4 ovarian): 4.07 µM
- TGI (OVCAR-4 ovarian): 17.8 µM
- GI50 (OVCAR-5 ovarian): 2.32 µM
- TGI (OVCAR-5 ovarian): 9.51 µM
- GI50 (OVCAR-8 ovarian): 2.96 µM
- TGI (OVCAR-8 ovarian): 17 µM
- GI50 (PC-3 prostate): 0.851 µM
- TGI (PC-3 prostate): 10.1 µM
- GI50 (RPMI-8226 leukemia): 1.47 µM
- TGI (RPMI-8226 leukemia): 8.12 µM
- GI50 (RXF 393 renal): 1.85 µM
- TGI (RXF 393 renal): 5.64 µM
- GI50 (SF-268 CNS): 1.84 µM
- TGI (SF-268 CNS): 13.9 µM
- GI50 (SF-295 CNS): 1.74 µM
- TGI (SF-295 CNS): 3.56 µM
- GI50 (SF-539 CNS): 0.795 µM
- TGI (SF-539 CNS): 8.06 µM
- GI50 (SK-MEL-2 melanoma): 2.92 µM
- TGI (SK-MEL-2 melanoma): 11.9 µM
- GI50 (SK-MEL-28 melanoma): 3.58 µM
- TGI (SK-MEL-28 melanoma): 13.2 µM
- GI50 (SK-MEL-5 melanoma): 2.56 µM
- TGI (SK-MEL-5 melanoma): 8.54 µM
- GI50 (SK-OV-3 ovarian): 2.71 µM
- TGI (SK-OV-3 ovarian): 13.7 µM
- GI50 (SN12C renal): 1.05 µM
- TGI (SN12C renal): 9.73 µM
- GI50 (SNB-19 CNS): 3.09 µM
- TGI (SNB-19 CNS): 12.4 µM
- GI50 (SNB-75 CNS): 0.568 µM
- TGI (SNB-75 CNS): 6.01 µM
- GI50 (SW-620 colon): 2.85 µM
- TGI (SW-620 colon): 11.7 µM
- GI50 (T-47D breast): 1.97 µM
- TGI (T-47D breast): 12 µM
- GI50 (TK-10 renal): 5.85 µM
- TGI (TK-10 renal): 15.1 µM
- GI50 (U251 CNS): 2.54 µM
- TGI (U251 CNS): 10.5 µM
- GI50 (UACC-257 melanoma): 3.47 µM
- TGI (UACC-257 melanoma): 15.3 µM
- GI50 (UACC-62 melanoma): 0.862 µM
- TGI (UACC-62 melanoma): 10.9 µM
- GI50 (UO-31 renal): 0.532 µM
- TGI (UO-31 renal): 7.55 µM

From PubChem BioAssay (NCI)
